System: not listed separately
Assay: Cytotoxicity against human HCT116 cells assessed as growth inhibition at 100 uM after 2 days by MTT assay
Type: functional
Conditions: HCT-116, 48 h, read-out: GI

| SMILES | inhibition of growth at 100 µM [%] |
| --- | --- |
| CNC(=O)c1cc(Oc2ccc3nc(NC(=O)c4ccc(Cl)c(C(F)(F)F)c4)sc3c2)ccn1 | 92.3 |

System: not listed separately
Assay: Cytotoxicity against human HCT116 cells assessed as growth inhibition at 10 uM after 2 days by MTT assay
Type: functional
Conditions: HCT-116, 48 h, read-out: GI

| SMILES | inhibition of growth at 10 µM [%] |
| --- | --- |
| CNC(=O)c1cc(Oc2ccc3nc(NC(=O)c4ccc(Cl)c(C(F)(F)F)c4)sc3c2)ccn1 | 30.2 |

System: not listed separately
Assay: Cytotoxicity against human SKBR3 cells assessed as growth inhibition at 100 uM after 2 days by MTT assay
Type: functional
Conditions: SK-BR-3, 48 h, read-out: GI

| SMILES | inhibition of growth at 100 µM [%] |
| --- | --- |
| CNC(=O)c1cc(Oc2ccc3nc(NC(=O)c4ccc(Cl)c(C(F)(F)F)c4)sc3c2)ccn1 | 86.5 |

System: not listed separately
Assay: Cytotoxicity against human SKBR3 cells assessed as growth inhibition at 10 uM after 2 days by MTT assay
Type: functional
Conditions: SK-BR-3, 48 h, read-out: GI

| SMILES | inhibition of growth at 10 µM [%] |
| --- | --- |
| CNC(=O)c1cc(Oc2ccc3nc(NC(=O)c4ccc(Cl)c(C(F)(F)F)c4)sc3c2)ccn1 | 6.26 |

System: not listed separately
Assay: Antiproliferative activity against human MOLT4 cells assessed as cell growth at 10^-5 M after 48 hrs by sulforhodamine B assay
Type: functional
Conditions: MOLT-4, 48 h, read-out: Activity

| SMILES | growth at 10 µM [%] |
| --- | --- |
| CNC(=O)c1cc(Oc2ccc3nc(NC(=O)c4ccc(Cl)c(C(F)(F)F)c4)sc3c2)ccn1 | 67.3 |

System: not listed separately
Assay: Antiproliferative activity against human RPMI8226 cells assessed as cell growth at 10^-5 M after 48 hrs by sulforhodamine B assay
Type: functional
Conditions: RPMI-8226, 48 h, read-out: Activity

| SMILES | growth at 10 µM [%] |
| --- | --- |
| CNC(=O)c1cc(Oc2ccc3nc(NC(=O)c4ccc(Cl)c(C(F)(F)F)c4)sc3c2)ccn1 | 64.8 |

System: A549
Assay: Antiproliferative activity against human A549/ATCC cells assessed as cell growth at 10^-5 M after 48 hrs by sulforhodamine B assay
Type: functional
Conditions: A549, 48 h, read-out: Activity

| SMILES | growth at 10 µM [%] |
| --- | --- |
| CNC(=O)c1cc(Oc2ccc3nc(NC(=O)c4ccc(Cl)c(C(F)(F)F)c4)sc3c2)ccn1 | 71.7 |

System: not listed separately
Assay: Antiproliferative activity against human HOP62 cells assessed as cell growth at 10^-5 M after 48 hrs by sulforhodamine B assay
Type: functional
Conditions: HOP-62, 48 h, read-out: Activity

| SMILES | growth at 10 µM [%] |
| --- | --- |
| CNC(=O)c1cc(Oc2ccc3nc(NC(=O)c4ccc(Cl)c(C(F)(F)F)c4)sc3c2)ccn1 | 83.7 |

System: NCI-H226
Assay: Antiproliferative activity against human NCI-H226 cells assessed as cell growth at 10^-5 M after 48 hrs by sulforhodamine B assay
Type: functional
Conditions: NCI-H226, 48 h, read-out: Activity

| SMILES | growth at 10 µM [%] |
| --- | --- |
| CNC(=O)c1cc(Oc2ccc3nc(NC(=O)c4ccc(Cl)c(C(F)(F)F)c4)sc3c2)ccn1 | 93.4 |

System: NCI-H460
Assay: Antiproliferative activity against human NCI-H460 cells assessed as cell growth at 10^-5 M after 48 hrs by sulforhodamine B assay
Type: functional
Conditions: NCI-H460, 48 h, read-out: Activity

| SMILES | growth at 10 µM [%] |
| --- | --- |
| CNC(=O)c1cc(Oc2ccc3nc(NC(=O)c4ccc(Cl)c(C(F)(F)F)c4)sc3c2)ccn1 | 56.4 |

System: NCI-H522
Assay: Antiproliferative activity against human NCI-H522 cells assessed as cell growth at 10^-5 M after 48 hrs by sulforhodamine B assay
Type: functional
Conditions: NCI-H522, 48 h, read-out: Activity

| SMILES | growth at 10 µM [%] |
| --- | --- |
| CNC(=O)c1cc(Oc2ccc3nc(NC(=O)c4ccc(Cl)c(C(F)(F)F)c4)sc3c2)ccn1 | 57.3 |

System: not listed separately
Assay: Antiproliferative activity against human COLO205 cells assessed as cell growth at 10^-5 M after 48 hrs by sulforhodamine B assay
Type: functional
Conditions: COLO 205, 48 h, read-out: Activity

| SMILES | growth at 10 µM [%] |
| --- | --- |
| CNC(=O)c1cc(Oc2ccc3nc(NC(=O)c4ccc(Cl)c(C(F)(F)F)c4)sc3c2)ccn1 | 80.4 |

System: not listed separately
Assay: Antiproliferative activity against human HCT15 cells assessed as cell growth at 10^-5 M after 48 hrs by sulforhodamine B assay
Type: functional
Conditions: HCT-15, 48 h, read-out: Activity

| SMILES | growth at 10 µM [%] |
| --- | --- |
| CNC(=O)c1cc(Oc2ccc3nc(NC(=O)c4ccc(Cl)c(C(F)(F)F)c4)sc3c2)ccn1 | 85 |

System: KM12
Assay: Antiproliferative activity against human KM12 cells assessed as cell growth at 10^-5 M after 48 hrs by sulforhodamine B assay
Type: functional
Conditions: KM12, 48 h, read-out: Activity

| SMILES | growth at 10 µM [%] |
| --- | --- |
| CNC(=O)c1cc(Oc2ccc3nc(NC(=O)c4ccc(Cl)c(C(F)(F)F)c4)sc3c2)ccn1 | 67.7 |

System: not listed separately
Assay: Antiproliferative activity against human SNB75 cells assessed as cell growth at 10^-5 M after 48 hrs by sulforhodamine B assay
Type: functional
Conditions: SNB-75, 48 h, read-out: Activity

| SMILES | growth at 10 µM [%] |
| --- | --- |
| CNC(=O)c1cc(Oc2ccc3nc(NC(=O)c4ccc(Cl)c(C(F)(F)F)c4)sc3c2)ccn1 | 39 |

System: Malme-3M
Assay: Antiproliferative activity against human MALME-3M cells assessed as cell growth at 10^-5 M after 48 hrs by sulforhodamine B assay
Type: functional
Conditions: read-out: Activity

| SMILES | growth at 10 µM [%] |
| --- | --- |
| CNC(=O)c1cc(Oc2ccc3nc(NC(=O)c4ccc(Cl)c(C(F)(F)F)c4)sc3c2)ccn1 | 57 |

System: M14
Assay: Antiproliferative activity against human M14 cells assessed as cell growth at 10^-5 M after 48 hrs by sulforhodamine B assay
Type: functional
Conditions: M14, 48 h, read-out: Activity

| SMILES | growth at 10 µM [%] |
| --- | --- |
| CNC(=O)c1cc(Oc2ccc3nc(NC(=O)c4ccc(Cl)c(C(F)(F)F)c4)sc3c2)ccn1 | 89.9 |

System: SK-MEL-2
Assay: Antiproliferative activity against human SK-MEL-2 cells assessed as cell growth at 10^-5 M after 48 hrs by sulforhodamine B assay
Type: functional
Conditions: SK-MEL-2, 48 h, read-out: Activity

| SMILES | growth at 10 µM [%] |
| --- | --- |
| CNC(=O)c1cc(Oc2ccc3nc(NC(=O)c4ccc(Cl)c(C(F)(F)F)c4)sc3c2)ccn1 | 96.5 |

System: SK-MEL-28
Assay: Antiproliferative activity against human SK-MEL-28 cells assessed as cell growth at 10^-5 M after 48 hrs by sulforhodamine B assay
Type: functional
Conditions: SK-MEL-28, 48 h, read-out: Activity

| SMILES | growth at 10 µM [%] |
| --- | --- |
| CNC(=O)c1cc(Oc2ccc3nc(NC(=O)c4ccc(Cl)c(C(F)(F)F)c4)sc3c2)ccn1 | 83 |

System: not listed separately
Assay: Antiproliferative activity against human UACC257 cells assessed as cell growth at 10^-5 M after 48 hrs by sulforhodamine B assay
Type: functional
Conditions: UACC-257, 48 h, read-out: Activity

| SMILES | growth at 10 µM [%] |
| --- | --- |
| CNC(=O)c1cc(Oc2ccc3nc(NC(=O)c4ccc(Cl)c(C(F)(F)F)c4)sc3c2)ccn1 | 75.3 |

System: not listed separately
Assay: Antiproliferative activity against human IGROV1 cells assessed as cell growth at 10^-5 M after 48 hrs by sulforhodamine B assay
Type: functional
Conditions: IGROV-1, 48 h, read-out: Activity

| SMILES | growth at 10 µM [%] |
| --- | --- |
| CNC(=O)c1cc(Oc2ccc3nc(NC(=O)c4ccc(Cl)c(C(F)(F)F)c4)sc3c2)ccn1 | 85.8 |

System: not listed separately
Assay: Antiproliferative activity against human OVCAR3 cells assessed as cell growth at 10^-5 M after 48 hrs by sulforhodamine B assay
Type: functional
Conditions: OVCAR-3, 48 h, read-out: Activity

| SMILES | growth at 10 µM [%] |
| --- | --- |
| CNC(=O)c1cc(Oc2ccc3nc(NC(=O)c4ccc(Cl)c(C(F)(F)F)c4)sc3c2)ccn1 | 66.4 |

System: not listed separately
Assay: Antiproliferative activity against human OVCAR4 cells assessed as cell growth at 10^-5 M after 48 hrs by sulforhodamine B assay
Type: functional
Conditions: OVCAR-4, 48 h, read-out: Activity

| SMILES | growth at 10 µM [%] |
| --- | --- |
| CNC(=O)c1cc(Oc2ccc3nc(NC(=O)c4ccc(Cl)c(C(F)(F)F)c4)sc3c2)ccn1 | 36.7 |

System: not listed separately
Assay: Antiproliferative activity against human OVCAR8 cells assessed as cell growth at 10^-5 M after 48 hrs by sulforhodamine B assay
Type: functional
Conditions: OVCAR-8, 48 h, read-out: Activity

| SMILES | growth at 10 µM [%] |
| --- | --- |
| CNC(=O)c1cc(Oc2ccc3nc(NC(=O)c4ccc(Cl)c(C(F)(F)F)c4)sc3c2)ccn1 | 57.2 |

System: not listed separately
Assay: Antiproliferative activity against human SKOV3 cells assessed as cell growth at 10^-5 M after 48 hrs by sulforhodamine B assay
Type: functional
Conditions: SK-OV-3, 48 h, read-out: Activity

| SMILES | growth at 10 µM [%] |
| --- | --- |
| CNC(=O)c1cc(Oc2ccc3nc(NC(=O)c4ccc(Cl)c(C(F)(F)F)c4)sc3c2)ccn1 | 85.3 |

System: A498
Assay: Antiproliferative activity against human A498 cells assessed as cell growth at 10^-5 M after 48 hrs by sulforhodamine B assay
Type: functional
Conditions: A498, 48 h, read-out: Activity

| SMILES | growth at 10 µM [%] |
| --- | --- |
| CNC(=O)c1cc(Oc2ccc3nc(NC(=O)c4ccc(Cl)c(C(F)(F)F)c4)sc3c2)ccn1 | 69 |

System: not listed separately
Assay: Antiproliferative activity against human Caki1 cells assessed as cell growth at 10^-5 M after 48 hrs by sulforhodamine B assay
Type: functional
Conditions: CAKI-1, 48 h, read-out: Activity

| SMILES | growth at 10 µM [%] |
| --- | --- |
| CNC(=O)c1cc(Oc2ccc3nc(NC(=O)c4ccc(Cl)c(C(F)(F)F)c4)sc3c2)ccn1 | 95.2 |

System: SN12C
Assay: Antiproliferative activity against human SN12C cells assessed as cell growth at 10^-5 M after 48 hrs by sulforhodamine B assay
Type: functional
Conditions: read-out: Activity

| SMILES | growth at 10 µM [%] |
| --- | --- |
| CNC(=O)c1cc(Oc2ccc3nc(NC(=O)c4ccc(Cl)c(C(F)(F)F)c4)sc3c2)ccn1 | 75.6 |

System: not listed separately
Assay: Antiproliferative activity against human TK10 cells assessed as cell growth at 10^-5 M after 48 hrs by sulforhodamine B assay
Type: functional
Conditions: TK-10, 48 h, read-out: Activity

| SMILES | growth at 10 µM [%] |
| --- | --- |
| CNC(=O)c1cc(Oc2ccc3nc(NC(=O)c4ccc(Cl)c(C(F)(F)F)c4)sc3c2)ccn1 | 92.8 |

System: not listed separately
Assay: Antiproliferative activity against human UO31 cells assessed as cell growth at 10^-5 M after 48 hrs by sulforhodamine B assay
Type: functional
Conditions: UO-31, 48 h, read-out: Activity

| SMILES | growth at 10 µM [%] |
| --- | --- |
| CNC(=O)c1cc(Oc2ccc3nc(NC(=O)c4ccc(Cl)c(C(F)(F)F)c4)sc3c2)ccn1 | 80.4 |

System: MCF7
Assay: Antiproliferative activity against human MCF7 cells assessed as cell growth at 10^-5 M after 48 hrs by sulforhodamine B assay
Type: functional
Conditions: MCF7, 48 h, read-out: Activity

| SMILES | growth at 10 µM [%] |
| --- | --- |
| CNC(=O)c1cc(Oc2ccc3nc(NC(=O)c4ccc(Cl)c(C(F)(F)F)c4)sc3c2)ccn1 | 64.1 |

System: MDA-MB-231
Assay: Antiproliferative activity against human MDA-MB-231 cells assessed as cell growth at 10^-5 M after 48 hrs by sulforhodamine B assay
Type: functional
Conditions: MDA-MB-231, 48 h, read-out: Activity

| SMILES | growth at 10 µM [%] |
| --- | --- |
| CNC(=O)c1cc(Oc2ccc3nc(NC(=O)c4ccc(Cl)c(C(F)(F)F)c4)sc3c2)ccn1 | 75.3 |

System: not listed separately
Assay: Antiproliferative activity against human Hs 578T cells assessed as cell growth at 10^-5 M after 48 hrs by sulforhodamine B assay
Type: functional
Conditions: read-out: Activity

| SMILES | growth at 10 µM [%] |
| --- | --- |
| CNC(=O)c1cc(Oc2ccc3nc(NC(=O)c4ccc(Cl)c(C(F)(F)F)c4)sc3c2)ccn1 | 66.2 |

System: not listed separately
Assay: Antiproliferative activity against human BT549 cells assessed as cell growth at 10^-5 M after 48 hrs by sulforhodamine B assay
Type: functional
Conditions: BT-549, 48 h, read-out: Activity

| SMILES | growth at 10 µM [%] |
| --- | --- |
| CNC(=O)c1cc(Oc2ccc3nc(NC(=O)c4ccc(Cl)c(C(F)(F)F)c4)sc3c2)ccn1 | 80.6 |

System: T47D
Assay: Antiproliferative activity against human T47D cells assessed as cell growth at 10^-5 M after 48 hrs by sulforhodamine B assay
Type: functional
Conditions: read-out: Activity

| SMILES | growth at 10 µM [%] |
| --- | --- |
| CNC(=O)c1cc(Oc2ccc3nc(NC(=O)c4ccc(Cl)c(C(F)(F)F)c4)sc3c2)ccn1 | 64.8 |

Source: ChEMBL document CHEMBL3797052 (Eur J Med Chem, 2016)
